# Where two headings read alike, the source gives them in different places.
# What was measured:
# ddy strain of male mice = test: Acute toxicity (oral, general symptom and death observed for 7 days); type: in vivo; conditions: for Acute toxicity, death number of mice/number of mice tested: 7 days
# Experimental: (§1) Next, several tests for determining the pharmacological properties, in that acute toxicity, anti-pyretic activity, analgesic activity and anti-inflammatory activity of the present 1,3,5-substituted biuret compounds of the formula (1) were conducted and the test results are shown in Table (2). In the tests, each compounds to be tested was used as a suspension in 0.25% carboxymethylcellulose solution. Methods for testing are explained as follows:
# The ddy strain of male mice (body weight, 20-25 g) were used as test animals. The mice were fasted overnight and the compound to be tested was administered orally. […] The lethal dose (mg/kg, body weight) of the test compound was determined in connection with the death number of mice/the number of mice tested. In Table 2, the values indicated with Δ marks are 50% lethal dose, LD50 (mg/kg, body weight).
# [1] = system: 10% dry-yeast suspension-induced fever of rats; test: Anti-pyretic activity (dry-yeast induced fever, febril index); type: in vivo, rats (Wistar strain, male); conditions: oral, febril index up to 4 hours after administration, dose not stated
# Experimental: as §1
# According to the method reported by Tanabe [Folia Pharmacologia Japonica, Vol. 73, pp. 803 (1977)], the Wistar strain of male rats (150-180 g body weight) were used as test animals. The rats were fasted overnight, and 1 ml/100 g (body weight) of 10% dry-yeast suspension were subcutaneously injected on the back of the rats. Five hours afte the injection, the test compound was administered orally, then the body temperature of the rat was measured time sequences. Anti-pyretic activity of the test compound was determined as the FI (febril index) by integrating pyrogenetic curve up to 4 hours after the administration of the test compound with time, and indicated as inhibitory ratio (%) shown by the following formula, [formula]
# [2] = system: pain reaction of the mouse caused by a clamp; test: Analgesic activity, Haffner method; type: in vivo, mice (ddy strain, male); conditions: for Analgesic activity, Haffner method, inhibitory ratio: mice
# Experimental: as §1
# According to the modified method reported by Fujimura et al., [Bulletin of the Institute for Chemical Research, Kyoto University, No. 25, pp. 36 (1951)], the ddy strain of male mice (body weight, 20-25 g) were used as test animals. The mice were fasted overnight, 100 mg/kg body weight of the test compound was administered orally, then 45 minutes after the administration, the threshhold amount (1.5-2.5 mg/kg body weight) of morphine hydrochloride was injected subcutaneously. Then 1-hour pain reaction of the mouse caused by a clamp was observed. Analgesic activity of the test compound was calculated as the inhibitory ratio (%). In Table 2, the values in parentheses show the data obtained from the test by using the dosage other than 100 mg/kg body weight. Further, the values indicated with Δ marks show 50% effective dose, ED50 (mg/kg body weight).
# [3] = system: acetic acid-induced stretching symptom of mouse; test: Analgesic activity, acetic acid-induced stretching method; type: in vivo, mice (ddy strain, male); conditions: for inhibition in vivo at 100 mg/kg / inhibition in vivo at 200 mg/kg: read-out: Analgesic activity, acetic acid-induced stretching method, inhibitory ratio
# Experimental: as §1
# (1) Acetic acid-induced stretching method
# According to the method reported by Koster et.al., [Fed. Proc., Vol. 18, pp. 412 (1959)], the ddy strain of male mice (body weight, 20-25 g) were used as test animals. The mice were fasted overnight, 100 mg/kg body weight of the test compound was administered orally, then 1 hour after the administration, 0.2 ml of 0.7% acetic acid solution was injected intraperitoneally. The acetic acid-induced stretching symptom of mouse was observed. Analgesic activity of the test compound was calculated as the inhibitory ratio (%). In Table 2, the values in parentheses show the data obtained from the test by using the dosage other than 100 mg/kg body weight. Further, the values indicated with Δ marks show 50% effective dose, ED50 (mg/kg body weight).
# [4] = system: carrageenin-induced inflammation of the hindpaw of the rat; test: Anti-inflammatory activity, acute carrageenin-induced inflammatory test; type: in vivo, rats (Wistar strain, male); conditions: for inhibition in vivo at 100 mg/kg / inhibition in vivo at 200 mg/kg: Rattus norvegicus, read-out: Anti-inflammatory activity, inflammation inhibitory ratio
# Experimental: as §1
# 4. Anti-inflammatory Activity
# According to the method of acute carrageenin-induced inflammatory test [Folia Pharmacologia Japonica, Vol. 56, pp. 575 (1960)], the Wistar strain of male rats (body weight, 150-180 g) were used as test animals. The rats were fasted overnight, 100 mg/kg body weight of the test compound was administered orally, then 1 hour after the administration, 0.1 ml of 1% carrageenin solution, as the inflammation inducing agent, was injected subcutaneously to the hindpaw of the rat and the volume of the hindpaw was measured at time sequences. Anti-inflammatory activity of the test compound was calculated as inflammation inhibitory ratio (%) at 3 hours after the injection of inflammation inducing agent.
# [5] = 100 mg/kg oral, rats, 3 hours after carrageenin
# [6] = 200 mg/kg oral, rats, 3 hours after carrageenin
Molecule,"Acute toxicity, death number of mice/number of mice tested (ddy strain of male mice; 1000 mg/kg oral)","Acute toxicity, death number of mice/number of mice tested (ddy strain of male mice; 2000 mg/kg oral)","Anti-pyretic activity, inhibitory ratio [1] [%]","Analgesic activity, Haffner method, inhibitory ratio ([2]; 100 mg/kg oral) [%]",inhibition in vivo at 100 mg/kg ([3]; po) [%],other results
"CCNC(=O)N(C)C(=O)Nc1ccc(F)cc1 [compound 32, 1-Ethyl-3-methyl-5-(4-fluorophenyl)biuret]",2/4,4/4,63,37.5,,"inhibition in vivo at 100 mg/kg ([3]; 100 mg/kg oral, mice): 100%"
"1,3-Dimethyl-5-(4-methyl-2-pyridyl)biuret [compound 18]",,,60,25,,"Acute toxicity, 50% lethal dose LD50 (ddy strain of male mice; oral, 7 days observation (Δ values)): 1500 mg/kg; Anti-inflammatory activity, inflammation inhibitory ratio [4, 5]: 20%"
"CC(C)NC(=O)N(C)C(=O)Nc1ccccc1 [Compound No. 43, 1-Isopropyl-3-methyl-5-phenylbiuret]",,0/4,38,25,50,"inhibition in vivo at 100 mg/kg ([4]; po, 3 h): 51%"
CNC(=O)N(C)C(=O)Nc1cc(C)ccn1 [compound 17],0/4,3/4,55,25,,"inhibition in vivo at 100 mg/kg ([3]; 100 mg/kg oral, mice): 25%; inhibition in vivo at 100 mg/kg ([4]; po, 3 h): 33%"
"CN(C(=O)Nc1ccccc1)C(=O)NC(C)(C)C [compound 51, 1-tert-Butyl-3-methyl-5-phenylbiuret]",,0/4,83,37.5,50,"inhibition in vivo at 100 mg/kg [4, 5]: 34%"
"CCNC(=O)NC(=O)Nc1ccccc1Cl [compound 24, 1-Ethyl-5-(2-chlorophenyl)biuret]",,0/4,,,,"Analgesic activity, Haffner method, inhibitory ratio ([2]; 200 mg/kg oral): 37.5%; inhibition in vivo at 200 mg/kg ([3]; 200 mg/kg oral, mice): 25%; inhibition in vivo at 200 mg/kg [4, 6]: 77%"
CCCCNC(=O)NC(=O)NCc1ccccc1 [compound 48],,0/4,,,,"ED50 ([2]; Mus musculus, oral, mice (Δ values; range in parentheses), read-out: Analgesic activity, Haffner method, 50% effective dose ED50): 110 mg/kg; ED50 ([3]; oral, mice (Δ values; range in parentheses), read-out: Analgesic activity, acetic acid-induced stretching method, 50% effective dose ED50): 111 mg/kg; inhibition in vivo at 200 mg/kg [4, 6]: 46%"
"CNC(=O)N(C)C(=O)Nc1ccccc1C(F)(F)F [compound 7, 1,3-Dimethyl-5-(2-trifluoromethylphenyl)biuret]",0/4,3/4,121,12.5,62.5,
"CCCCCNC(=O)N(C)C(=O)Nc1ccccc1 [compound 52, 1-n-Pentyl-3-methyl-5-phenylbiuret]",,0/4,38,37.5,62.5,
"CCNC(=O)N(C)C(=O)Nc1ccc(O)cc1 [compound 34, 1-Ethyl-3-methyl-5-(4-hydroxyphenyl)biuret]",,0/4,,12.5,,"inhibition in vivo at 100 mg/kg ([3]; 100 mg/kg oral, mice): 25%; inhibition in vivo at 100 mg/kg [4, 5]: 19%"
"CCNC(=O)N(C)C(=O)Nc1ccc(C)c(C)c1 [compound 39, 1-Ethyl-3-methyl-5-(3,4-dimethylphenyl)biuret]",,0/4,8,37.5,50,
"CN(C(=O)NCCC#N)C(=O)Nc1ccccc1 [compound 54, 1-(2-Cyanoethyl)-3-methyl-5-phenylbiuret]",0/4,3/4,,12.5,50,"inhibition in vivo at 100 mg/kg [4, 5]: 39%"
"CNC(=O)N(C)C(=O)Nc1ccc(CC(=O)O)cc1 [compound 11, 1,3-Dimethyl-5-(4-carboxymethylphenyl)biuret]",,0/4,7,37.5,25,
"CCNC(=O)NC(=O)Nc1ccc(Cl)c(Cl)c1 [compound 27, 1-Ethyl-5-(3,4-dichlorophenyl)biuret]",0/4,1/4,,,,"Analgesic activity, Haffner method, inhibitory ratio ([2]; 200 mg/kg oral): 12.5%; inhibition in vivo at 200 mg/kg ([3]; po): 12.5%; inhibition in vivo at 200 mg/kg ([4]; po, 3 h): 44%"
"CCNC(=O)N(C)C(=O)Nc1ccc(C)cc1 [compound 38, 1-Ethyl-3-methyl-5-(4-methylphenyl)biuret]",0/4,3/4,80,25,,"inhibition in vivo at 100 mg/kg ([3]; 100 mg/kg oral, mice): 87.5%"
"CN(C(=O)NCCO)C(=O)Nc1ccccc1 [compound 56, 1-(2-Hydroxyethyl)-3-methyl-5-phenylbiuret]",,0/4,,37.5,62.5,"inhibition in vivo at 100 mg/kg [4, 5]: 42%"
CCNC(=O)NC(=O)Nc1ccc(Cl)cc1 [compound 26],,0/4,,,,"Analgesic activity, Haffner method, inhibitory ratio ([2]; 200 mg/kg oral): 25%; inhibition in vivo at 200 mg/kg ([3]; po): 12.5%; inhibition in vivo at 200 mg/kg [4, 6]: 76%"
CCCNC(=O)NC(=O)NCc1ccccc1 [compound 42],,0/4,,,,"Analgesic activity, Haffner method, inhibitory ratio ([2]; 200 mg/kg oral): 50%; inhibition in vivo at 200 mg/kg ([3]; 200 mg/kg oral, mice): 82.5%; inhibition in vivo at 200 mg/kg [4, 6]: 31%"

# — patent publication US4350700A, “Pharmaceutical composition containing 1,3,5-substituted biuret compound” (Taiho Pharmaceutical Company, Limited, priority 1979, dated 1982)
